The results in this text go back to US11986532B2 (Arvinas Operations, Inc., priority 2021, dated 2024).

For the assay, the target named is T1, BCL6 (Homo sapiens, UniProt P41182).
T1 construct: endogenous in cells; host or cells: T47D breast cancer epithelial cells
Nature of the assay: Immunofluorescence protocol for high content imaging of BCL6 (degradation) in T47D cells, 3 days compound treatment. In kind it is cell-based. To be noted: for Dmax: read-out: Mean Dmax (%)** category; for DC50: read-out: Mean DC50 (nM)* category. A digest of the protocol: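 High content immunofluorescence imaging (10×, 4 fields/well) of BCL6 using rabbit primary antibody, Alexa-488 secondary, cell mask and Hoechst nuclear stain after PFA fixation. Before staining, T47D cells (7K/well) were exposed for 3 days at 37° C to 3-fold serial dilutions of compound, top final concentration 0.1 or 1 μM.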

Where [1] appears, read: T47D cells, 3 days compound treatment.

Read-outs that look alike come from different tables or passages of the source.

Usually Dmax stands for the greatest extent of degradation seen. What is called DC50 is the concentration at which degradation of the target reaches its halfway point. As to `CNC(=O)COc1cc2cc(Nc3nc(N4CCC(O[C@H]5C[C@H](N6CCN(CC7CCN(c8ccc9c(c8F)CN(C8CCC(=O)NC8=O)C9=O)CC7)CC6)C5)CC4)ncc3Cl)ccc2n(C(C)C)c1=O` (stereo partly drawn) [Compound 286, 2-({6-[(5-chloro-2-{4-[(1r,3r)-3-[4-({1-[2-(2,6-dioxopiperidin-3-yl)-4-fluoro-1-oxo-2,3-dihydro-1H-isoindol-5-yl]piperidin-4-yl}methyl)piperazin-1-yl]cyclobutoxy]piperidin-1-yl}pyrimidin-4-yl)amino]-2-oxo-1-(propan-2-yl)-1,2-dihydroquinolin-3-yl}oxy)-N-methylacetamide], the DC50 is less than 10 nM. The maximal degradation (Dmax) (T47D) fell in the range of 50 to 70%.
With `CNC(=O)COc1cc2cc(Nc3nc(N4CCN(CC5CC6(CCN(c7cccc8c7CN(C7CCC(=O)NC7=O)C8=O)CC6)C5)CC4)ncc3Cl)ccc2n(C(C)C)c1=O` (stereo not drawn) [Compound 7, 2-{[6-({5-chloro-2-[4-({7-[2-(2,6-dioxopiperidin-3-yl)-1-oxo-2,3-dihydro-1H-isoindol-4-yl]-7-azaspiro[3.5]nonan-2-yl}methyl)piperazin-1-yl]pyrimidin-4-yl}amino)-2-oxo-1-(propan-2-yl)-1,2-dihydroquinolin-3-yl]oxy}-N-methylacetamide], under setting [1], the DC50 is less than 10 nM and the Dmax was not below 70%.
The like results for `CNC(=O)COc1cc2cc(Nc3nc(N4CC(C)OC(C)C4)ncc3Cl)ccc2n(CCOc2ccc3c(c2)C(=O)N(C2CCC(=O)NC2=O)C3=O)c1=O` (stereo not drawn) [Compound 33, 2-[(6-{[5-chloro-2-(2,6-dimethylmorpholin-4-yl)pyrimidin-4-yl]amino}-1-(2-{[2-(2,6-dioxopiperidin-3-yl)-1,3-dioxo-2,3-dihydro-1H-isoindol-5-yl]oxy}ethyl)-2-oxo-1,2-dihydroquinolin-3-yl)oxy]-N-methylacetamide] were, in that order, 50 to 100 nM and less than 50%.
With `CNC(=O)COc1cc2cc(Nc3cc(N4CCC(CN5CCC6(CN(c7ccc8c(c7)CN(C7CCC(=O)NC7=O)C8=O)C6)C(F)(F)C5)CC4)ncc3Cl)ccc2n(C(C)C)c1=O` (stereo not drawn) [Compound 231, 2-{[6-({5-chloro-2-[4-({2-[2-(2,6-dioxopiperidin-3-yl)-1-oxo-2,3-dihydro-1H-isoindol-5-yl]-5,5-difluoro-2,7-diazaspiro[3.5]nonan-7-yl}methyl)piperidin-1-yl]pyridin-4-yl}amino)-2-oxo-1-(propan-2-yl)-1,2-dihydroquinolin-3-yl]oxy}-N-methylacetamide], the 50% degradation concentration (DC50) was less than 10 nM. Also, the maximal degradation (Dmax) (T47D) lay in the range of 50 to 70%.
As for `CNC(=O)COc1cc2cc(Nc3nc(N4CCC(CN5CCC6(CC5)CN(c5ccc7c(c5)C(=O)N(C5CCC(=O)NC5=O)C7=O)C6)CC4)ncc3Cl)ccc2n(C2CC2)c1=O` (stereo not drawn) [Compound 50, 2-{[6-({5-chloro-2-[4-({2-[2-(2,6-dioxopiperidin-3-yl)-1,3-dioxo-2,3-dihydro-1H-isoindol-5-yl]-2,7-diazaspiro[3.5]nonan-7-yl}methyl)piperidin-1-yl]pyrimidin-4-yl}amino)-1-cyclopropyl-2-oxo-1,2-dihydroquinolin-3-yl]oxy}-N-methylacetamide], under setting [1], the DC50 is less than 10 nM and the Dmax lay in the range of 50 to 70%.
The corresponding values for `CNC(=O)COc1cc2c(F)c(Nc3nc(N4CCC(CN5CCC6(CC5)CN(c5ccc7c(c5)CN(C5CCC(=O)NC5=O)C7=O)C6)CC4)ncc3Cl)ccc2n(C(C)C)c1=O` (stereo not drawn) [Compound 161, 2-{[6-({5-chloro-2-[4-({2-[2-(2,6-dioxopiperidin-3-yl)-1-oxo-2,3-dihydro-1H-isoindol-5-yl]-2,7-diazaspiro[3.5]nonan-7-yl}methyl)piperidin-1-yl]pyrimidin-4-yl}amino)-5-fluoro-2-oxo-1-(propan-2-yl)-1,2-dihydroquinolin-3-yl]oxy}-N-methylacetamide] are less than 10 nM and not below 70%.
The corresponding values for `CNC(=O)COc1cc2c(F)c(Nc3nc(N4CCN(CC5CCC6(CC5)CN(c5cccc7c5C(=O)N(C5CCC(=O)NC5=O)C7=O)C6)CC4)ncc3Cl)ccc2n(C(C)C)c1=O` (stereo not drawn) [Compound 169, 2-{[6-({5-chloro-2-[4-({2-[2-(2,6-dioxopiperidin-3-yl)-1,3-dioxo-2,3-dihydro-1H-isoindol-4-yl]-2-azaspiro[3.5]nonan-7-yl}methyl)piperazin-1-yl]pyrimidin-4-yl}amino)-5-fluoro-2-oxo-1-(propan-2-yl)-1,2-dihydroquinolin-3-yl]oxy}-N-methylacetamide] are less than 10 nM and not below 70%.
For `CNC(=O)COc1cc2cc(Nc3nc(N4CCN(CC5CCC6(CC5)CN(c5c(F)ccc7c5CN(C5CCC(=O)NC5=O)C7=O)C6)CC4)ncc3Cl)ccc2n(C(C)C)c1=O` (stereo not drawn) [Compound 314, 2-{[6-({5-chloro-2-[4-({2-[2-(2,6-dioxopiperidin-3-yl)-5-fluoro-1-oxo-2,3-dihydro-1H-isoindol-4-yl]-2-azaspiro[3.5]nonan-7-yl}methyl)piperazin-1-yl]pyrimidin-4-yl}amino)-2-oxo-1-(propan-2-yl)-1,2-dihydroquinolin-3-yl]oxy}-N-methylacetamide], the DC50 is less than 10 nM. The Dmax (T47D) was 50 to 70%.
The corresponding values for `CNC(=O)COc1cc2c(F)c(Nc3cc(N4CCC(CN5CCC6(CN(c7ccc8c(c7F)CN(C7CCC(=O)NC7=O)C8=O)C6)C(F)(F)C5)CC4)ncc3Cl)ccc2n(C(C)C)c1=O` (stereo not drawn) [Compound 252, 2-{[6-({5-chloro-2-[4-({2-[2-(2,6-dioxopiperidin-3-yl)-4-fluoro-1-oxo-2,3-dihydro-1H-isoindol-5-yl]-5,5-difluoro-2,7-diazaspiro[3.5]nonan-7-yl}methyl)piperidin-1-yl]pyridin-4-yl}amino)-5-fluoro-2-oxo-1-(propan-2-yl)-1,2-dihydroquinolin-3-yl]oxy}-N-methylacetamide] are less than 10 nM and 50 to 70%.
In the case of `CNC(=O)COc1cc2cc(Nc3nc(N4CCC(OC5CCC6(CC5)CN(c5cc7c(cc5F)C(=O)N(C5CCC(=O)NC5=O)C7)C6)CC4)ncc3Cl)ccc2n(C(C)C)c1=O` (stereo not drawn) [Compound 123, 2-{[6-({5-chloro-2-[4-({2-[2-(2,6-dioxopiperidin-3-yl)-6-fluoro-1-oxo-2,3-dihydro-1H-isoindol-5-yl]-2-azaspiro [3.5]nonan-7-yl}oxy)piperidin-1-yl]pyrimidin-4-yl}amino)-2-oxo-1-(propan-2-yl)-1,2-dihydroquinolin-3-yl]oxy}-N-methylacetamide], under setting [1], the DC50 is less than 10 nM and the greatest degradation seen (Dmax) is not below 70%.
In the case of `CNC(=O)COc1cc2cc(Nc3nc(N4CCC(O[C@H]5C[C@H](N6CCC7(CCN(c8ccc9c(c8)C(=O)N(C8CCC(=O)NC8=O)C9=O)C7)CC6)C5)CC4)ncc3Cl)ccc2n(C(C)C)c1=O` (stereo partly drawn) [Compound 360, 2-({6-[(5-chloro-2-{4-[(1r,3r)-3-{2-[2-(2,6-dioxopiperidin-3-yl)-1,3-dioxo-2,3-dihydro-1H-isoindol-5-yl]-2,8-diazaspiro[4.5]decan-8-yl}cyclobutoxy]piperidin-1-yl}pyrimidin-4-yl)amino]-2-oxo-1-(propan-2-yl)-1,2-dihydroquinolin-3-yl}oxy)-N-methylacetamide], the DC50 is less than 10 nM. Where the note is “T47D”, the Dmax was 50 to 70%.
`CNC(=O)COc1cc2cc(Nc3nc(N4CCC(OC5CCC6(CC5)CN(c5ccc7c(c5)CN(C5CCC(=O)NC5=O)C7=O)C6)CC4)ncc3Cl)ccc2n(C(C)C)c1=O` (stereo not drawn) [Compound 49, 2-{[6-({5-chloro-2-[4-({2-[2-(2,6-dioxopiperidin-3-yl)-1-oxo-2,3-dihydro-1H-isoindol-5-yl]-2-azaspiro[3.5]nonan-7-yl}oxy)piperidin-1-yl]pyrimidin-4-yl}amino)-2-oxo-1-(propan-2-yl)-1,2-dihydroquinolin-3-yl]oxy}-N-methylacetamide]: under setting [1], the half-maximal degradation concentration (DC50) is less than 10 nM and the Dmax was 50 to 70%.
On to `CNC(=O)COc1cc2cc(Nc3nc(N4CCC(O[C@H]5C[C@H](N6CCC(c7cc8c(cc7Cl)C(=O)N(C7CCC(=O)NC7=O)C8)CC6)C5)CC4)ncc3Cl)ccc2n(C(C)C)c1=O` (stereo partly drawn) [Compound 329, 2-({6-[(5-chloro-2-{4-[(1r,3r)-3-{4-[6-chloro-2-(2,6-dioxopiperidin-3-yl)-1-oxo-2,3-dihydro-1H-isoindol-5-yl]piperidin-1-yl}cyclobutoxy]piperidin-1-yl}pyrimidin-4-yl)amino]-2-oxo-1-(propan-2-yl)-1,2-dihydroquinolin-3-yl}oxy)-N-methylacetamide], for which the DC50 was less than 10 nM. For the same compound, under “T47D”, the Dmax was 50 to 70%.
The like results for `[2H]C([2H])([2H])Oc1c(N2CC3(CCC(OC4CCN(c5ncc(Cl)c(Nc6ccc7c(c6)cc(OCC(=O)NC)c(=O)n7C(C)C)n5)CC4)CC3)C2)ccc2c1CN(C1CCC(=O)NC1=O)C2=O` (stereo not drawn) [Compound 225, 2-((6-((5-chloro-2-(4-((2-(2-(2,6-dioxopiperidin-3-yl)-4-(methoxy-d3)-1-oxoisoindolin-5-yl)-2-azaspiro[3.5]nonan-7-yl)oxy)piperidin-1-yl)pyrimidin-4-yl)amino)-1-isopropyl-2-oxo-1,2-dihydroquinolin-3-yl)oxy)-N-methylacetamide] were, in that order, less than 10 nM and not below 70%.
Consider `CNC(=O)COc1cc2cc(Nc3nc(N4CCC(CN5CCC6(CN(c7ccc8c(c7)C(=O)N(C7CCC(=O)NC7=O)C8=O)C6)C(F)(F)C5)CC4)ncc3Cl)ccc2n(C(C)C)c1=O` (stereo not drawn) [Compound 38, 2-{[6-({5-chloro-2-[4-({2-[2-(2,6-dioxopiperidin-3-yl)-1,3-dioxo-2,3-dihydro-1H-isoindol-5-yl]-5,5-difluoro-2,7-diazaspiro[3.5]nonan-7-yl}methyl)piperidin-1-yl]pyrimidin-4-yl}amino)-2-oxo-1-(propan-2-yl)-1,2-dihydroquinolin-3-yl]oxy}-N-methylacetamide], for which, under setting [1], the DC50 was less than 10 nM and the Dmax was in the range of 50 to 70%.
